Results reported in PMC12118337, “Development of a Peptide Inhibitor Targeting the C‐SH2 Domain of the SHP2 Phosphatase” (Chembiochem, 2025).
Non-standard residues stand in square brackets, D forms with d. Residues, ends and D or L forms follow the SMILES beside them. pY = N[C@@H](Cc1ccc(OP(=O)(O)O)cc1)C(=O)O

Assays:
SHP2 N‐SH2 domain = target: T1, SHP2 N‐SH2 domain (Homo sapiens, UniProt Q06124); assay: Isothermal titration calorimetry (ITC), SHP2 N-SH2 domain; assay type: binding; details: 20 mM Tris-HCl pH 7.6, 150 mM NaCl, 1:1 stoichiometry assumed, one experiment, read-out: K D, N‐SH2 (ITC)
T1 construct: SHP2 N-SH2 domain (1–105), C-SH2 domain (106–220), PTP domain (224–541) and; His6 (pETM22 vector) (N, cleaved yes); made in house; host or cells: E. coli BL21(DE3)
T1 sequence (Q06124 1-105): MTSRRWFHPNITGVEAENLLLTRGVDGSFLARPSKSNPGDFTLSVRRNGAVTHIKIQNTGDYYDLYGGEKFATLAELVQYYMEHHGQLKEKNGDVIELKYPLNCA
Description: (§1) concentration of 100 nM in a final volume of 200 µL. For baseline subtraction, each peptide was added to FP buffer, instead of protein, with a final peptide concentration of 100 nM in a final volume of 200 µL. Samples were mixed gently then 3 x 60 µL of each sample was transferred into triplicate wells in a 96-well plate (OptiPlate-96 F Black; PerkinElmer). The FP was immediately measured on a Synergy H1 Microplate Reader (BioTek) with the excitation and emission monitored at 485 nm and 528 nm, respectively, over 30 minutes. FP values were automatically calculated by the Gen5 3.03 (BioTek) software associated with the microplate reader. Data were analysed in Excel 2016 by subtracting baseline values from FP values at 10 minutes. Data were then further analysed in GraphPad Prism 6 by plotting the baseline subtracted FP values against the protein concentration and fitting the data to a variable slope model of non-linear regression to obtain the KD values. Data are from three independent experiments, each performed in technical triplicates.
(§2) 5. Isothermal titration calorimetry
(§3) Isothermal titration calorimetry (ITC) was used to measure the binding of the Ac-ITSM(pTyr) to the SHP2 C-SH2 or N-SH2 domain. […]

full‐length SHP2 = target: T2, full‐length SHP2 (Homo sapiens, UniProt Q06124); assay: DiFMUP phosphatase assay, peptide activation (no activator); assay type: biochemical; details: 0.5 nM full-length SHP2, no tandem activator, peptide 0.096 nM – 51.2 µM
T2 construct: 1–525) proteins were prepared; His-SUMO3 (pETM11-SUMO3 vector) (N, cleaved yes); made in house; host or cells: E. coli BL21(DE3)
T2 sequence (Q06124 1-525): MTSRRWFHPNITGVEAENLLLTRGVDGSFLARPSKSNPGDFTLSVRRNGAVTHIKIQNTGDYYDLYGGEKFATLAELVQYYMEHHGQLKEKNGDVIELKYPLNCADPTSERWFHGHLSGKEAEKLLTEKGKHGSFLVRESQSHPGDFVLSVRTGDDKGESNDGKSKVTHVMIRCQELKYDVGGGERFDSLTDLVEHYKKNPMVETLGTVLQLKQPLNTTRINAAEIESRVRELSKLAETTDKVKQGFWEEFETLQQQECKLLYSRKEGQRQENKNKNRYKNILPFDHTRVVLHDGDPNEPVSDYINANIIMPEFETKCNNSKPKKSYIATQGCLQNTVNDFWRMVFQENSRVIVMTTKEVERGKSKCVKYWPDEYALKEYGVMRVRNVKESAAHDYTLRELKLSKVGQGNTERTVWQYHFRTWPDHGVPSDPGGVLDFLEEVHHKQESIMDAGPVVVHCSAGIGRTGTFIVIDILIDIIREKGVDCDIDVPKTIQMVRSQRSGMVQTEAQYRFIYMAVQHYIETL
Description: 6. DiFMUP phosphatase assays
SHP2 dephosphorylation of the fluorogenic substrate 6,8-difluoro-4-methylumbiliferyl phosphate (DiFMUP) was measured to evaluate the effect of acetylated peptides on SHP2 activity. Final concentrations of 0.5 nM full-length SHP2, 200 µM DiFMUP (Invitrogen) and 26 nM bisphosphorylated tandem ITIM-[dPEG4]2-ITSM (CASLO ApS) were used, unless stated otherwise, per well in 96-well plates (OptiPlate-96 F Black; PerkinElmer). For peptide activation assays, each well contained 60 µL of reaction buffer (50 mM HEPES pH 7.6, 150 mM NaCl, 1 mM EDTA, 0.05% Tween 20, freshly added 5 mM DTT), 10 µL of SHP2 and 20 µL of the test peptide (0.096 nM – 51.2 µM final concentration). For peptide inhibition assays in the presence of a SHP2 activator, each well contained 40 µL of reaction buffer (50 mM HEPES pH 7.6, 150 mM NaCl, 1 mM EDTA, 0.05% Tween 20, freshly added 5 mM DTT), 10 µL of SHP2 and 40 µL of previously mixed bisphosphorylated tandem ITIM-[dPEG4]2-ITSM activator and test peptide (0.096 nM – 51.2 µM or 0.376 nM – 200 µM final concentration). […] The fluorescence was immediately measured on a Synergy H1 Microplate Reader (BioTek) with the excitation and emission monitored at 358 nm and 452 nm, respectively, over 30 minutes. Data were analysed in Excel 2016 by subtracting background values from emission values and calculating the slope of the emission profiles. […]

SHP2 C‐SH2 domain = target: T3, SHP2 C‐SH2 domain (Homo sapiens, UniProt Q06124); assay: Isothermal titration calorimetry (ITC), SHP2 C-SH2 domain; assay type: binding; details: 20 mM Tris-HCl pH 7.6, 150 mM NaCl, 1:1 stoichiometry assumed, one experiment, read-out: K D, C‐SH2 (ITC)
T3 construct: SHP2 N-SH2 domain (1–105), C-SH2 domain (106–220), PTP domain (224–541) and; His6 (pETM22 vector) (N, cleaved yes); made in house; host or cells: E. coli BL21(DE3)
T3 sequence (Q06124 106-220): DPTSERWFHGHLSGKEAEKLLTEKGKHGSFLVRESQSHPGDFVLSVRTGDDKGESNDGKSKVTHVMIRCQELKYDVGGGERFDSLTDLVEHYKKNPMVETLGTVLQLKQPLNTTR
Description: as §1, §2, §3

Which results are given for `CC[C@H](C)[C@H](NC(=O)[C@@H](NC(=O)[C@H](C)NC(=O)[C@H](Cc1ccc(OP(=O)(O)O)cc1)NC(=O)[C@H](CCC(=O)O)NC(=O)[C@@H](NC(=O)[C@H](CCC(N)=O)NC(=O)[C@H](CCC(=O)O)NC(C)=O)[C@@H](C)O)[C@@H](C)O)C(=O)N[C@H](C(=O)N[C@@H](Cc1ccccc1)C(=O)N1CCC[C@H]1C(N)=O)C(C)C` [Ac‐ITSM(pTyr)] (Ac-EQTE[pY]ATIVFP-NH2)?
Kd (SHP2 N‐SH2 domain): 106 nM; SHP2 phosphatase activity with peptide alone (activation) (full‐length SHP2): increased; Kd (SHP2 C‐SH2 domain): 58.8 nM
